From ChEMBL document CHEMBL1151155, “Effect of magnesium lithospermate B on urinary prostaglandins in rats with renal failure” (1990)
The source made the active and inactive calls. The calls are words filed in the database; no cut-off is given here.

What was measured:
[1] = tested on: Rattus norvegicus; experiment: Decrease in urinary excretion of thromboxane B2 in adenine rich diet fed LWH:Wistar rat at […], ip administered from day 7 to day 12 of adenine ingestion; assay type: functional, Urine; parameters: scale not given: the % may be the effect or the level left
[2] = tested on: Rattus norvegicus; experiment: Effect on urinary excretion of prostaglandin in adenine rich diet fed LWH:Wistar rat assessed as urine TXB2 level per 24 hrs at […], ip administered from day 7 to day 12 of adenine ingestion; assay type: functional
[3] = tested on: Rattus norvegicus; experiment: Effect on urinary excretion of prostaglandin in adenine rich diet fed LWH:Wistar rat assessed as urine prostaglandin E2 level per 24 hrs at […], ip administered from day 7 to day 12 of adenine ingestion; assay type: functional
[4] = tested on: Rattus norvegicus; experiment: Effect on urinary excretion of prostaglandin in adenine rich diet fed LWH:Wistar rat assessed as urine 6-keto-PGF1-alpha level per 24 hrs at […], ip administered from day 7 to day 12 of adenine ingestion; assay type: functional
[5] = tested on: Rattus norvegicus; experiment: Protection against renal failure in adenine rich diet fed LWH:Wistar rat up to […], ip administered once daily from day 7 to day 12 of adenine ingestion; assay type: functional, organism-based
[6] = tested on: Rattus norvegicus; experiment: Increase in urinary excretion of prostaglandin E2 in adenine rich diet fed LWH:Wistar rat at […], ip administered from day 7 to day 12 of adenine ingestion; assay type: functional, organism-based; details: Urine

Q: With `O=C(/C=C/c1ccc(O)c2c1[C@H](C(=O)O[C@H](Cc1ccc(O)c(O)c1)C(=O)[O-])[C@@H](c1ccc(O)c(O)c1)O2)O[C@H](Cc1ccc(O)c(O)c1)C(=O)[O-].[Mg+2]` [MAGNESIUM LITHOSPERMATE B] as the compound, how does the Activity [1] read?
A: Its Activity is 36%.

Q: And the Activity [2]?
A: The Activity was 23.3 ng.

Q: What about the Activity [3] of the same compound?
A: The Activity was 72.5 ng.

Q: What about the Activity [4] of the same compound?
A: Its Activity is 20.7 ng.

Q: And the Activity [5]?
A: Its Activity is “Active”.

Q: What about the Activity [6] of the same compound?
A: Its Activity is “Active”.
